According to PubChem BioAssay AID330 (DTP/NCI, 2004):
Where “and” joins values, the source holds several entries; their conditions need not be identical. Equal entries are not always repeated. Toxic doses and inconclusive results are not listed.

System: P388 leukemia ip, CD2F1 mice, survival T/C
Assay: NCI In Vivo Anticancer Drug Screen. Data for tumor model P388 Leukemia (intraperitoneal) in CD2F1 (CDF1) mice
Settings: endpoint: median survival time, higher = longer survival
In short: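 Mice carrying the transplanted tumor received test compound or vehicle. Survival was recorded in each group, and the value is the treated-group measurement divided by that of the vehicle-treated control group.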

[1] = dose: 100.0 mg/kg/injection, schedule: Q01DX009 (ip), vehicle: Klucel (hydroxypropylcellulose) (HPC)
[2] = dose: 200.0 mg/kg/injection, schedule: Q01DX009 (ip), vehicle: Klucel (hydroxypropylcellulose) (HPC)
[3] = dose: 60.0 mg/kg/injection, schedule: Q01DX005 (ip), vehicle: saline with Tween-80
[4] = dose: 120.0 mg/kg/injection, schedule: Q01DX005 (ip), vehicle: saline with Tween-80
[5] = dose: 240.0 mg/kg/injection, schedule: Q01DX005 (ip), vehicle: saline with Tween-80
[6] = dose: 100.0 mg/kg/injection, schedule: Q04DX003 (ip), vehicle: saline with Tween-80
[7] = dose: 50.0 mg/kg/injection, schedule: Q01DX009 (ip), vehicle: saline
[8] = dose: 100.0 mg/kg/injection, schedule: Q01DX009 (ip), vehicle: saline
[9] = dose: 200.0 mg/kg/injection, schedule: Q01DX009 (ip), vehicle: saline
[10] = dose: 12.5 mg/kg/injection, schedule: Q01DX005 (ip), vehicle: saline with Tween-80
[11] = dose: 50.0 mg/kg/injection, schedule: Q01DX005 (ip), vehicle: saline with Tween-80
[12] = dose: 200.0 mg/kg/injection, schedule: Q01DX005 (ip), vehicle: saline with Tween-80
[13] = dose: 50.0 mg/kg/injection, schedule: Q01DX009 (ip), vehicle: saline with Tween-80
[14] = dose: 100.0 mg/kg/injection, schedule: Q01DX009 (ip), vehicle: saline with Tween-80
[15] = dose: 100.0 mg/kg/injection, schedule: Q01DX005 (ip), vehicle: saline with Tween-80
[16] = dose: 25.0 mg/kg/injection, schedule: Q01DX005 (ip), vehicle: Klucel (hydroxypropylcellulose) (HPC)
[17] = dose: 50.0 mg/kg/injection, schedule: Q01DX005 (ip), vehicle: Klucel (hydroxypropylcellulose) (HPC)

## CC(=O)OC1(c2nccc3ccccc23)CCN(Cc2ccccc2)CC1
dose: 50.0 mg/kg/injection, schedule: Q01DX009 (ip), vehicle: Klucel (hydroxypropylcellulose) (HPC)
  T/C: 106 % of control
[1]
  T/C: 106 % of control
[2]
  T/C: 102 % of control

## Cc1cccc[n+]1CC(=O)C[n+]1ccccc1C
dose: 50.0 mg/kg/injection, schedule: Q01DX005 (ip), vehicle: saline
  T/C: 95 % of control
dose: 100.0 mg/kg/injection, schedule: Q01DX005 (ip), vehicle: saline
  T/C: 101 % of control

## CC(C)B1N(C(C)(C)C)B(C(C)C)N(C(C)(C)C)B(C(C)C)N1C(C)(C)C
[3]
  T/C: 93 % of control
[4]
  T/C: 101 % of control
[5]
  T/C: 104 % of control

## Cc1nn(-c2ccccc2)nc1C(=O)Nc1ccccc1C(=O)NCC1CC1
[3]
  T/C: 91 % of control
[4]
  T/C: 90 % of control and 94 % of control and 96 % of control
[5]
  T/C: 103 % of control and 95 % of control and 96 % of control

## O=c1[nH]cc(COCC(F)(F)F)c(=O)[nH]1
dose: 50.0 mg/kg/injection, schedule: Q04DX003 (ip), vehicle: saline with Tween-80
  T/C: 99 % of control
[6]
  T/C: 111 % of control

## CC(C)Cc1cc(-c2cc(CC(C)C)nc(N)n2)nc(N)n1
dose: 60.0 mg/kg/injection, schedule: Q01DX005 (ip), vehicle: saline
  T/C: 100 % of control
dose: 120.0 mg/kg/injection, schedule: Q01DX005 (ip), vehicle: saline
  T/C: 90 % of control

## COc1cc(NCCCCC(C)N)c2nccc(C)c2c1 (configuration not stated)
dose: 12.5 mg/kg/injection, schedule: Q01DX009 (ip), vehicle: saline
  T/C: 94 % of control
dose: 25.0 mg/kg/injection, schedule: Q01DX009 (ip), vehicle: saline
  T/C: 92 % of control

## CCNC(=O)OCc1c(-c2ccccc2)nc2n1CCS2
dose: 6.25 mg/kg/injection, schedule: Q01DX001 (ip), vehicle: Klucel (hydroxypropylcellulose) (HPC)
  T/C: 104 % of control
dose: 12.5 mg/kg/injection, schedule: Q01DX001 (ip), vehicle: Klucel (hydroxypropylcellulose) (HPC)
  T/C: 98 % of control and 115 % of control
dose: 25.0 mg/kg/injection, schedule: Q01DX001 (ip), vehicle: Klucel (hydroxypropylcellulose) (HPC)
  T/C: 114 % of control and 93 % of control
dose: 50.0 mg/kg/injection, schedule: Q01DX001 (ip), vehicle: Klucel (hydroxypropylcellulose) (HPC)
  T/C: 101 % of control and 106 % of control
dose: 75.0 mg/kg/injection, schedule: Q01DX001 (ip), vehicle: Klucel (hydroxypropylcellulose) (HPC)
  T/C: 108 % of control

## O=S1(=O)CCN(Cc2ccncc2)CC1
[7]
  T/C: 100 % of control
[8]
  T/C: 98 % of control
[9]
  T/C: 100 % of control

## O=C(NCc1cc(CNC(=O)c2cccc(O)c2O)cc(CNC(=O)c2cccc(O)c2O)c1)c1cccc(O)c1O
[10]
  T/C: 93 % of control
dose: 25.0 mg/kg/injection, schedule: Q01DX005 (ip), vehicle: saline with Tween-80
  T/C: 102 % of control
[11]
  T/C: 99 % of control and 107 % of control

## CC(=O)C1CCC2=C(C1)C(=O)c1cc3c(-c4ccccc4)oc(-c4ccccc4)c3cc1C2=O (configuration not stated)
dose: 7.5 mg/kg/injection, schedule: Q01DX005 (ip), vehicle: Klucel (hydroxypropylcellulose) (HPC)
  T/C: 87 % of control
dose: 15.0 mg/kg/injection, schedule: Q01DX005 (ip), vehicle: Klucel (hydroxypropylcellulose) (HPC)
  T/C: 94 % of control

## Nc1nc(N)nc(CCC(Cl)(Cl)Cl)n1
dose: 12.5 mg/kg/injection, schedule: Q01DX009 (ip), vehicle: distilled water + Tween-80
  T/C: 100 % of control
dose: 25.0 mg/kg/injection, schedule: Q01DX009 (ip), vehicle: distilled water + Tween-80
  T/C: 100 % of control
dose: 50.0 mg/kg/injection, schedule: Q01DX009 (ip), vehicle: distilled water + Tween-80
  T/C: 95 % of control
dose: 100.0 mg/kg/injection, schedule: Q01DX009 (ip), vehicle: distilled water + Tween-80
  T/C: 95 % of control
dose: 200.0 mg/kg/injection, schedule: Q01DX009 (ip), vehicle: distilled water + Tween-80
  T/C: 100 % of control

## O=C1c2cccc3cccc(c23)C(=O)N1c1ncn[nH]1
dose: 6.25 mg/kg/injection, schedule: Q01DX005 (ip), vehicle: saline with Tween-80
  T/C: 87 % of control
[10]
  T/C: 86 % of control
[12]
  T/C: 88 % of control

## O=[N+]([O-])c1ccc(CCCl)cc1
[13]
  T/C: 99 % of control
[14]
  T/C: 88 % of control
dose: 200.0 mg/kg/injection, schedule: Q01DX009 (ip), vehicle: saline with Tween-80
  T/C: 90 % of control

## CC(=O)c1nc(-c2ccccc2)[nH]c1C
dose: 25.0 mg/kg/injection, schedule: Q01DX009 (ip), vehicle: saline with Tween-80
  T/C: 101 % of control
[13]
  T/C: 104 % of control
[14]
  T/C: 105 % of control
[6]
  T/C: 99 % of control
dose: 200.0 mg/kg/injection, schedule: Q04DX003 (ip), vehicle: saline with Tween-80
  T/C: 90 % of control

## C=CC1CCCCC1=O (configuration not stated)
[11]
  T/C: 110 % of control
[15]
  T/C: 111 % of control
[12]
  T/C: 111 % of control

## O=C(CCBr)N1CCN(C(=O)CCBr)CC1
dose: 2.5 mg/kg/injection, schedule: Q01DX009 (ip), vehicle: saline
  T/C: 100 % of control
dose: 5.0 mg/kg/injection, schedule: Q01DX009 (ip), vehicle: saline
  T/C: 104 % of control
dose: 5.0 mg/kg/injection, schedule: Q01DX010 (ip), vehicle: Klucel (hydroxypropylcellulose) (HPC)
  T/C: 108 % of control
dose: 10.0 mg/kg/injection, schedule: Q01DX009 (ip), vehicle: saline
  T/C: 112 % of control
dose: 10.0 mg/kg/injection, schedule: Q01DX010 (ip), vehicle: Klucel (hydroxypropylcellulose) (HPC)
  T/C: 120 % of control
dose: 20.0 mg/kg/injection, schedule: Q01DX009 (ip), vehicle: saline
  T/C: 112 % of control
dose: 40.0 mg/kg/injection, schedule: Q01DX009 (ip), vehicle: saline
  T/C: 169 % of control
dose: 40.0 mg/kg/injection, schedule: Q01DX010 (ip), vehicle: Klucel (hydroxypropylcellulose) (HPC)
  T/C: 171 % of control
dose: 80.0 mg/kg/injection, schedule: Q01DX009 (ip), vehicle: saline
  T/C: 110 % of control
dose: 80.0 mg/kg/injection, schedule: Q01DX010 (ip), vehicle: Klucel (hydroxypropylcellulose) (HPC)
  T/C: 91 % of control

## CC1CC(C)(O)CC(C(O)CC2CC(=O)NC(=O)C2)C1=O (configuration not stated)
dose: 77.8 micrograms/kg/injection, schedule: Q01DX009 (ip), vehicle: saline
  T/C: 123 % of control
dose: 216.0 micrograms/kg/injection, schedule: Q01DX009 (ip), vehicle: saline
  T/C: 152 % of control and 162 % of control
dose: 360.0 micrograms/kg/injection, schedule: Q01DX009 (ip), vehicle: saline
  T/C: 165 % of control
dose: 467.0 micrograms/kg/injection, schedule: Q04DX003 (ip), vehicle: saline
  T/C: 120 % of control
dose: 778.0 micrograms/kg/injection, schedule: Q04DX003 (ip), vehicle: saline
  T/C: 120 % of control
dose: 1300.0 micrograms/kg/injection, schedule: Q04DX003 (ip), vehicle: saline
  T/C: 120 % of control
dose: 2160.0 micrograms/kg/injection, schedule: Q04DX003 (ip), vehicle: saline
  T/C: 124 % of control
dose: 3600.0 micrograms/kg/injection, schedule: Q04DX003 (ip), vehicle: saline
  T/C: 118 % of control

## COc1ccc(Nc2nc3c(s2)c(C)c(O)c2ccccc23)cc1
[3]
  T/C: 95 % of control
[4]
  T/C: 103 % of control
[5]
  T/C: 112 % of control

## COc1cc(/C=C/C(=O)NCCc2c[nH]c3ccc(O)cc23)ccc1O
dose: 6.25 mg/kg/injection, schedule: Q01DX005 (ip), vehicle: Klucel (hydroxypropylcellulose) (HPC)
  T/C: 96 % of control
dose: 12.5 mg/kg/injection, schedule: Q01DX005 (ip), vehicle: Klucel (hydroxypropylcellulose) (HPC)
  T/C: 95 % of control
[16]
  T/C: 87 % of control and 90 % of control
[17]
  T/C: 88 % of control
dose: 200.0 mg/kg/injection, schedule: Q01DX005 (ip), vehicle: Klucel (hydroxypropylcellulose) (HPC)
  T/C: 88 % of control

## Cc1cccc(C)c1NC(=S)NC(=O)c1cccc(Cl)c1
[16]
  T/C: 94 % of control
[17]
  T/C: 92 % of control
dose: 100.0 mg/kg/injection, schedule: Q01DX005 (ip), vehicle: Klucel (hydroxypropylcellulose) (HPC)
  T/C: 97 % of control

## CCOS(=O)(=O)c1ccc(C(=O)O)cc1
[7]
  T/C: 108 % of control
[8]
  T/C: 107 % of control
[9]
  T/C: 107 % of control

## COc1ccc(C2NCc3c(sc4c3CCCC4)-n3cccc32)cc1 (configuration not stated)
[11]
  T/C: 87 % of control
[15]
  T/C: 87 % of control
[12]
  T/C: 87 % of control
